5 compounds from ChEMBL document CHEMBL1150906, “Cytotoxic and insecticidal constituents of the unripe fruit of Persea americana” (J Nat Prod, 1998) can be followed below.

Data set [1] concerns A498. The data set can be described thus: Cytotoxicity against human A498 cells by MTT assay. In kind it is functional, cell-based.
For data set [2], the system named is PC-3. Kind of data set: Cytotoxicity against human PC3 cells by MTT assay. The format is functional, cell-based.
Data set [3] deals with MCF7. Kind of data set: Cytotoxicity against human MCF7 cells by MTT assay. The format is functional, cell-based. (In general: Tetrazolium dyes change colour on reduction, which living cells bring about.)
In data set [4] the test system is A549. The data set can be described thus: Cytotoxicity against human A549 cells by MTT assay. In kind it is functional, cell-based.
Data set [5] deals with Aedes aegypti. Kind of data set: Insecticidal activity against yellow fever mosquito larvae […] in bovine liver powder after 4 days by MES assay. The format is functional. As to conditions: 96 h.
Data set [6] is described as follows: Toxicity in Artemia salina. The format is organism-based. As to conditions: in vivo.
Data set [7] deals with MIA PaCa-2. Kind of data set: Cytotoxicity against human MIAPaCa2 cells by MTT assay. The format is functional, cell-based.
The subject of data set [8] is HT-29. Kind of data set: Cytotoxicity against human HT-29 cells by MTT assay. The format is functional, cell-based.

Converted amounts (≈) assume the structure as drawn.

Consider `C#CCCCCCCCCCCCC(O)CC(O)CO` (stereo unspecified) [AVOCADYNE], for which the IC50 (in general, the concentration needed to halve the response being measured) is 4.1 µg/mL (≈ 14.4 µM) in data set [1]; 0.061 µg/mL (≈ 0.214 µM) in data set [2]; 6.5 µg/mL (≈ 22.9 µM) in data set [3]; 4.8 µg/mL (≈ 16.9 µM) in data set [4]; greater than 10 µg/mL in data set [7]; 8.9 µg/mL (≈ 31.3 µM) in data set [8]. For the same compound, the results for the LC50 in data set [5] and in data set [6] were 0.077 µg/mL (≈ 0.271 µM) and 0.64 µg/mL (≈ 2.25 µM), respectively.
Take `COc1cccc2c1C(=O)c1c(O)c3c(c(O)c1C2=O)C[C@@](O)(C(=O)CO)C[C@@H]3O[C@H]1C[C@H](N)[C@H](O)[C@H](C)O1` [DOXORUBICIN]: the IC50 in data set [1] was 0.0049 µg/mL (≈ 0.00902 µM); in data set [2], 0.011 µg/mL (≈ 0.0202 µM); in data set [3], 0.081 µg/mL (≈ 0.149 µM); in data set [4] it was 0.0022 µg/mL (≈ 0.00405 µM); in data set [7], 0.0024 µg/mL (≈ 0.00442 µM); in data set [8] it was 0.0053 µg/mL (≈ 0.00975 µM).
With `C=C(C)[C@H]1Cc2c(ccc3c2O[C@@H]2COc4cc(OC)c(OC)cc4[C@@H]2C3=O)O1` [ROTENONE], the LC50 (in general, the concentration lethal to half of the exposed cells or organisms) in data set [5] came out at 0.75 µg/mL (≈ 1.9 µM).
On to `CCCCCCCCCCCCCCCC(O)CC(O)CO` (stereo unspecified), for which the 50% inhibitory concentration (IC50) in data set [1] was 2.7 µg/mL (≈ 8.53 µM); in data set [2], 1.2 µg/mL (≈ 3.79 µM); in data set [3], 3.2 µg/mL (≈ 10.1 µM); in data set [4], 3 µg/mL (≈ 9.48 µM); in data set [7], greater than 10 µg/mL; in data set [8], 3 µg/mL (≈ 9.48 µM). Besides, the LC50 in data set [5] was 1.8 µg/mL (≈ 5.69 µM); in data set [6], 2.8 µg/mL (≈ 8.85 µM).
Take `C=CCCCCCCCCCCCC(O)CC(O)CO` (stereo unspecified) [AVOCADENE]: the IC50 stood at 3.6 µg/mL (≈ 12.6 µM) in data set [1]; 0.46 µg/mL (≈ 1.61 µM) in data set [2]; 4.4 µg/mL (≈ 15.4 µM) in data set [3]; 3.4 µg/mL (≈ 11.9 µM) in data set [4]; 5.3 µg/mL (≈ 18.5 µM) in data set [7]; 2.6 µg/mL (≈ 9.08 µM) in data set [8]. Besides, the results for the median lethal concentration (LC50) in data set [5] and in data set [6] were 0.21 µg/mL (≈ 0.733 µM) and 1.3 µg/mL (≈ 4.54 µM), respectively.
